No end group written: not given here.
Experiments:
[1] = affinity towards eukaryotic and prokaryotic membranes; cited from earlier work
Description: (§1) Peptide 6.2 (P6.2) is a de novo designed antimicrobial peptide, with an amphipathic alfa helical structure.

mice erythrocytes = conditions: cited from earlier work
Description: as §1

[2] = test system: P. aeruginosa strain PA01; conditions: mice challenged with P. aeruginosa PA01; ref previous work; cited from earlier work
Description: The antimicrobial peptide P6.2 was previously de novo designed as an alpha helix cationic amphipathic molecule. […] In this work, the peptide P6.2 antimicrobial activity and its possible synergy with ...

P. aeruginosa M13513 [3] = test: Galleria mellonella larval infection model; type: in vivo
Description: Lepidoptera were reared in the laboratory in a standardized manner. A breeding colony was established, and the different stages of the insect’s life cycle were documented. Adult insects were housed in a plastic container without access to food, allowing for the collection of eggs. Then, eggs and larvae were placed in containers with fresh food, prepared from autoclaved wheat bran (50%), dry yeast (5%), beeswax (6%), honey (26%), and glycerin (13%). In each growth cycle, a pool of larvae was reserved to progress to pupa and adult generation. The larvae and eggs were kept at room temperature during the warm seasons and in an oven with humidity control at 30 °C during the cold seasons. For each experiment, a group of late-stage caterpillars was set aside and kept in the dark at a temperature of 10–12 °C, ensuring their use within one week of collection. For the in vivo tests, larvae of approximately 2 cm in length and an average weight of 250 mg were used. This average weight was used to calculate the antimicrobial doses. The bacterial inoculum used in the larval infection models was prepared from an ON culture, which was washed twice with physiological saline solution and adjusted by measuring OD600nm. […] The larvae were incubated at 37 °C, and their survival was monitored for five days.

[4] = test system: P. aeruginosa strain PA01; conditions: sub-MIC concentrations, reference strain PAO1; cited from earlier work
Description: Biofilms are complex bacterial communities characterized by extensive intercellular interactions. Biofilm-associated bacteria, including P. aeruginosa, are commonly implicated in chronic infections that can persist for years. As such, managing biofilm-associated infections has become a critical focus in antimicrobial therapy, given their resistance to conventional antibiotic concentrations.

P. aeruginosa M13513 [5] = test: Synergy by time-kill kinetic assay; type: cell-based, Pseudomonas aeruginosa; conditions: P6.2 and meropenem both at 0.5× MIC, synergy = ≥2-log10 decrease in CFU/mL vs most active constituent after 24 h
Method: The possible synergistic interaction between P6.2 and meropenem was assessed through time–kill kinetic assays. These experiments were conducted in 50 mL tubes with a final volume of 10 mL. A log-phase culture of P. aeruginosa M13513 was obtained and subsequently diluted in CAMHB to achieve a final bacterial concentration of 5 × 10^6 CFU/mL. Both P6.2 and meropenem were tested individually and in combination at 0.5× MIC (minimum inhibitory concentration). Untreated bacterial cultures served as controls.
The samples were incubated at 37 °C with constant shaking for 24 h. Aliquots were collected at 0, 1, 2, 3, 4, 8, and 20 h, serially diluted in saline, and plated in triplicate on LB agar using three drops of 50 µL per dilution. The plates were incubated at 37 °C for 24 h to determine colony-forming unit (CFU) counts.
The results were plotted as Log CFU/mL versus time (h). […] A bactericidal effect was determined when the initial inoculum was reduced by three or more logarithmic units.

P. aeruginosa M13513 [6] = test: Eradication of pre-formed biofilm and cell viability (crystal violet, MTT, CLSM); type: cell-based, Pseudomonas aeruginosa; conditions: 1xMIC to 8xMIC
Method: Biofilms of P. aeruginosa M13513 were grown in 96-well flat-bottom polystyrene plates using CAMHB for 24 h. Once the biofilms were established, the supernatant was removed, and 100 µL of CAMHB containing two-fold serial dilutions of antimicrobials were added to each well. The plates were then incubated for an additional 24 h at 37 °C.
For each experiment, two sets of plates were prepared: one for biofilm quantification using the crystal violet (CV) staining method described earlier, and another to assess bacterial cell viability within the biofilm using the MTT assay (3-(4,5-dimethylthiazol-2-yl)-2,5-diphenyltetrazolium bromide). To perform the MTT assay, the medium was carefully removed, and biofilms were washed three times with 200 µL of saline solution. Subsequently, 100 µL of a 0.05% (w/v) MTT solution was added to each well, and the plates were incubated in the dark at 37 °C for 3 h.
Following incubation, the supernatant was discarded, and the resulting formazan crystals were dissolved in 100 µL of DMSO. The samples were then homogenized by orbital shaking for 10 min. Finally, absorbance was measured at 570 nm using a microplate reader. […]
The proportion of live and dead bacteria was determined by analyzing three representative images from each biofilm sample using the ImageJ software 1.52v with the FIJI plugin.

GLLRKWGKKWKEFLRRVWK-NH2 [Peptide P6.2]
membrane selectivity [1]: selectivity for bacterial membranes
erythrocytes lysis (mice erythrocytes): less than 10%
effect in murine acute lung infection model [2]: anti-inflammatory effects
survival compared with meropenem 2.5 alone (log-rank test) (P. aeruginosa M13513 [3]; P6.2 5 + Mer 2.5 vs Mer 2.5): not significative differences
prevention of larvae death (P. aeruginosa M13513 [3]; peptide alone, 2.5-80 mg/kg single injection 1 h post infection, 10^3 CFU/larva, n = 10, 5 days): not effective
anti-biofilm activity [4]: did not display anti-biofilm activity
interaction with meropenem (P. aeruginosa M13513 [5]): synergism
bacterial viability inside the pre-formed biofilm (P. aeruginosa M13513 [6]; MTT assay, confirmed by SYTO9/PI confocal microscopy): significantly decreased the bacterial viability inside the biofilm
pre-formed biofilm mass (P. aeruginosa M13513 [6]; crystal violet, 24 h treatment): diminished the biofilm mass
